Measurements as given in patent US20230272012A1, “PEPTIDES AND METHODS OF USE” (REALTA LIFE SCIENCES, INC., priority 2020, published 2023).
“Also recorded” adds a separate entry of the source. Peptide text beside a SMILES is read from it.

Experiments:
complement activity = assay: Hemolytic assay of plasma after IV infusion into rats; type: in vivo, rat; conditions: IV in Wistar rats; early time points at the highest dose
Method: (§1) Male Wistar rats with indwelling jugular catheters were administered PA-0117, -0127, -0130, and -0133 with groups of three animals receiving 20, 200 and 400 mg/kg of the compound as a single, bolus, IV infusion. A control group of rats received an infusion of saline IV. At various time points after infusion (0.5, 2, 5, 20, 60, 120, 240, 480, 1440 minute) an aliquot of blood was drawn and plasma isolated and frozen at −70° C. pending analysis. Animals were sacrificed after the terminal blood draw and a gross necropsy performed.
(§2) PA-0117 could not be analyzed as no functional complement activity was obtained from the plasma samples. […] PA-0117 was analyzed in a C1q target acquisition assay (C1q binding assay) as described in Example 1 (FIG. 9). […] PA-0127 and -0130 levels were determined by coating the plate with the plasma samples and directly detecting the peptides by rabbit antibody raised against PA-0020 (peptide sequence […]; SEQ ID NO: 57) (FIGS. 10B and 11B). […] PA-0133 could not be detected by the available antibodies.

human neutrophils = assay: NETosis assay (free DNA, PicoGreen); type: cell-based; conditions: peptide 2 mM; neutrophils stimulated with PMA and H2O2
Method: Free DNA as a marker for NET formation was measured by PicoGreen as previously described. Briefly, 2.0×10^6 human neutrophils in 96-well plates were stimulated with 12 nM PMA and 0.05% H2O2 in RPMI with or without the indicated peptide variants (2 mM) for 2.5 hr in a 37° C. humified incubator supplemented with 5% CO2, allowing NETosis to occur. Neutrophils in RPMI alone served as a negative control. Fifty units of […] (Fisher) were added to each well to allow for digestion of released extracellular DNA for 10 min at 37° C. The preparation was then aliquoted into an adjacent well and mixed 1:1 with prepared PICO green reagent (Fisher). The fluorescence was then quantified on a BioTek microplate reader at excitation 485 nm/emission 528 nm.

PD-1/PD-L1 interaction = target: T1, PD-1/PD-L1 interaction (Homo sapiens, UniProt Q15116+Q9NZQ7); assay: PD-1/PD-L1 Blockade Bioassay (Promega); type: cell-based; conditions: increasing peptide concentrations
T1 construct: host or cells: PD-1 effector cells; PD-L1 aAPC/CHO-K1 cells
Method: PD-1 effector cells were incubated with PD1-L1 aAPC cells in the absence or presence of increasing concentrations of anti-PD-1 antibody (positive control) and select PIC1 peptides. Luminescence was detected in luminometer plate reader.
To assess if PIC1 peptides could block PD-1 inhibitory activity in a cell-based assay, select peptides were screened in the PD-1/PD-L1 Blockade Bioassay (Promega). The PD-1/PD-L1 Blockade Bioassay is a biologically relevant MOA-based assay that can be used to measure the potency and stability of antibodies and other biologics designed to block the PD-1/PD-L1 interaction. This bioluminescent cell-based assay is used to measure the potency and stability of molecules targeting PD-1 and consists of two genetically engineered cell lines: aAPC/CHO-K1 Cells are CHO-K1 cells with an engineered cell surface protein designed to activate cognate TCRs in an antigen-independent manner. When the two cell types are co-cultured, the PD-1/PD-L1 interaction inhibits TCR signaling and NFAT-mediated luciferase activity. Addition of an inhibitory molecule that blocks either PD-1 or PD-L1 releases the inhibitory signal and results in TCR signaling and NFAT-mediated luciferase activity.

CTLA-4 = target: T2, CTLA-4 (Homo sapiens, UniProt P16410); assay: CTLA-4 Blockade Bioassay (Promega); type: cell-based; set-up: host or cells: Jurkat T cells (CTLA-4 effector cells); aAPC/Raji cells; conditions: increasing concentrations; listed as RLS-0130
T2 sequence (P16410 36-223): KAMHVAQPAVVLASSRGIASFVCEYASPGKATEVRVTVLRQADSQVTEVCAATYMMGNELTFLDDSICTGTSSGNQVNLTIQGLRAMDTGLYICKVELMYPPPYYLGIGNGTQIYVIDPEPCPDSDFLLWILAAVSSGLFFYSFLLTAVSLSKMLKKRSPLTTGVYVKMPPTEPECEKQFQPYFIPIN
Method: CTLA-4 effector cells were incubated with aAPC/Raji Cells in the absence or presence of increasing concentrations of anti-CTLA-4 antibody (positive control), RLS-0127*, RLS-0130, RLS-0156, RLS-0170 and RLS-0174. Luminescence was detected in luminometer plate reader.
To assess if PIC1 peptides could block CTLA-4 inhibitory activity in a cell-based assay, select peptides were screened in the CTLA-4 Blockade Bioassay (Promega). This bioluminescent cell-based assay is used to measure the potency and stability of molecules targeting CTLA-4 and consists of two genetically engineered cell lines: CTLA-4 effector cells: Jurkat T cells expressing human CTLA-4 and a luciferase reporter driven by a native promoter which responds to TCR/CD28 activation and aAPC/Raji Cells: Raji cells expressing an engineered cell surface protein designed to activate cognate TCRs in an antigen-independent manner and endogenously expressing CTLA-4 ligands CD80 and CD86. When the two cell types are co-cultured, CTLA-4 competes with CD28 for their shared ligands, CD80 and CD86 and thus inhibits CD28 pathway activation and promoter-mediated luminescence. Addition of a molecule that blocks the interaction of CTLA-4 with its ligands CD80 and CD86 results in promoter-mediated luminescence.

[1] = type: in vivo, rat; conditions: IV in Wistar rats, 20, 200, 400 mg/kg; 0.5-1440 minute
Method: as §1, §2
PA-0117: The hemolysis assay results were not useable (few pre-bleeds had any activity, and only a few other random samples had any complement activity). The PK assay for PA-0117 was performed by sandwich ELISA (FIG. 9). PA-0127: The results of the hemolysis assay are discussed herein (see also FIG. 10A). […] PA-0130: The results of the hemolysis assay are discussed herein (see also FIG. 11A). […] PA-0133: The results of the hemolysis assay are discussed herein (FIG. 12).

[2] = tested on: purified human Pan T-cells; assay: T-cell exhaustion protocol (Dynabeads re-stimulation); type: cell-based; conditions: peptides 2 mg/ml at each stimulation
Method: Purified human pan-T-cells were subject to stimulation with Dynabeads every 48 hours over the period of 8 days with cells also receiving PIC1 peptides (2 mg/ml) at each stimulation. Cells not receiving Dynabeads were run in parallel to assess background levels of Caspase 3/7 signal. At the eighth day, cells were harvested and the levels of Caspase 3/7 determined by ELISA.
Purified human pan-T-cells were subject to stimulation with Dynabeads every 48 hours over the period of 8 days with cells also receiving PIC1 peptides (2 mg/ml) at each stimulation. Cell supernatants were collected at each stimulation and levels of IL-2 and IFN-gamma assayed by ELISA.
T-cell exhaustion is a form of T-cell dysfunction that occurs in cancer. It is defined by poor effector function, reduction in cytokine release (e.g., IL-2, TNF-alpha, IFN-gamma), sustained expression of inhibitory receptors (e.g., PD-1, LAG-3, CD244, CD160) with the progressive loss of effector function due to overstimulation. Exhaustion prevents optimal control of tumor growth. Exhausted T cells are prevalent in the tumor microenvironment (TME) and can lead to T-cell apoptosis. T-cell exhaustion is reversible, and pharmaceutical inhibition of T-cell exhaustion has been considered a promising strategy by many cancer researchers. To ascertain if PIC1 peptides could reverse T-cell exhaustion and increase T cell viability and effector function, a T-cell exhaustion protocol was developed. To induce T-cell exhaustion, purified human Pan T-cells were stimulated with T-Activator CD3/CD28 Dynabeads and cells are washed and re-stimulated every 48 hours. PIC1 peptides were added to the cells after each stimulation with Dynabeads. After three to four stimulations cells were harvested for readouts which consisted of assessing T-cell apoptosis by measuring Caspase 3/7 levels and production of cytokines IL-2 and IFN-gamma which is indicative of T-cell functionality. […] To further evaluate if PIC1 peptides could restore T-cell functionality in cells that have undergone the exhaustion protocol, the inventors next assessed production of cytokines IL-2 and IFN-gamma. Supernatants from the cells after each stimulation were collected and the cytokines measured by ELISA. […] The lower level of IFN-gamma signal compared to IL-2 was consistently seen in this assay.

[3] = ABO incompatibility hemolytic assay of complement activity (CH50-type); type: cell-based, human; conditions: peptide 0.8 mg/ml (~0.5 mM); read-out: decrease of ABO hemolysis compared to PA-I8Sar
Method: FIG. 1A-1B show PIC1 peptides' inhibition of complement activation in an ABO incompatibility assay. […] Inhibition of ABO incompatibility hemolysis in a CH50-type assay. Peptides are at a final concentration of 0.5 mM. Values are represented as a percent of the positive control, which consists of human O sera and AB red blood cells in GVBS^++ buffer. Data are the means of n=3 independent experiments±SEM.
For hemolytic complement assays, human red blood cells (RBCs) from type AB donors were purified, washed, and standardized to 1.0×10^9 cells/ml, as previously described. Human sera from type O donors at a 15% final concentration was combined with 0.5 mM of the peptides and the volume was brought up to 0.2 ml with GVBS^++ and 5.0×10^7 RBCs. The samples were incubated for 1 hour at 37° C. and then spun at 3,000 rpm for 5 minutes and the supernatant was collected and read at 412 nm. Values are represented as a percent of the positive control, which consists of human O sera and AB red blood cells in GVBS^++ buffer.
To assess the extent to which the peptide variants inhibit antibody-initiated complement activation, an ABO incompatibility ex vivo assay was utilized in which purified erythrocytes from a ‘type AB+’ donor are incubated with sera from a ‘type O’ subject containing anti-A and anti-B antibodies. Peptides were tested at a concentration of 0.8 mg/ml (˜0.5 mM). […] D-amino acid variants PA-0127 and PA-0133 decreased ABO hemolysis by 20% (P value=0.083) and 25% (P value=0.076), respectively. […]

[4] = as described in U.S. Pat. No. 10,005,818; cited from earlier work

T1 sequence (Q15116 25-288): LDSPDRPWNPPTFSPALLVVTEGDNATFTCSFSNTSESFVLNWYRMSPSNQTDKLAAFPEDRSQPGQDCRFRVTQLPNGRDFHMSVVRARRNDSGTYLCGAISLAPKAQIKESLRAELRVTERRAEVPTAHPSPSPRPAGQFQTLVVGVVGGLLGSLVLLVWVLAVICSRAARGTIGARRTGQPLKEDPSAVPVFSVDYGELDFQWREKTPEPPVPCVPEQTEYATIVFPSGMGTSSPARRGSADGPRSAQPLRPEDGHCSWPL
T1 sequence (Q9NZQ7 19-290): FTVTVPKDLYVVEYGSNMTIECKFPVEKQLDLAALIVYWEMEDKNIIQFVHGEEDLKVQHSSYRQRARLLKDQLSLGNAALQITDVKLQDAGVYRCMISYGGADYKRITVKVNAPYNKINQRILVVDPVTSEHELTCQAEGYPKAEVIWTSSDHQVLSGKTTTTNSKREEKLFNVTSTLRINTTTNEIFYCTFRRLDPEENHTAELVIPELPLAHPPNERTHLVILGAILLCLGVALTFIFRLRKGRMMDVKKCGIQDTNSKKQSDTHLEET

| Compound | inhibition of complement activity in the hemolytic assay of rat plasma (complement activity) | reduction of free DNA (marker of NETosis) (human neutrophils) | inhibition of PD-1/PD-L1 inhibitory signaling (luminescence) (PD-1/PD-L1 interaction) | inhibitory activity in CTLA-4 blockade bioassay (luminescence) (CTLA-4) | peptide level in plasma over time [1] | Caspase 3/7 levels ([2]; eighth day) | IL-2 signal at stimulation 2 ([2]; supernatant ELISA) | decrease in ABO hemolysis compared to reference peptide [3] [%] | water solubility without PEGylation [4] |
| --- | --- | --- | --- | --- | --- | --- | --- | --- | --- |
| CC[C@H](C)[C@H](N)C(=O)N[C@@H](C)C(=O)N[C@@H](CC(C)C)C(=O)N[C@H](C(=O)N[C@@H](CC(C)C)C(=O)N[C@@H](CCC(=O)O)C(=O)N1CCC[C@H]1C(=O)N(C)CC(=O)N[C@@H](CS)C(=O)N[C@@H](CS)C(=O)N[C@@H](CCC(N)=O)C(=O)N[C@H](CCC(=O)O)C(=O)N[C@@H](CCCNC(=N)N)C(=O)N[C@@H](C)C(=O)N[C@@H](C)C(=O)O)[C@@H](C)CC [PA-0130, IALILEP(Sar)CCQdERAA] (HELM PEPTIDE1{I.A.L.I.L.E.P.[Sar].C.C.Q.[dE].R.A.A}$$$$V2.0) | inhibition of complement activity | reduction in free DNA similar to that of the PA-I8Sar control; also recorded: ability to inhibit NET formation | did not show PD-1/PD-L1 inhibitory activity | showed inhibitory activity; also recorded: able to inhibit CTLA-4 mediated cell signaling | increased binding was observed at early time points with diminished signal at later time points | very low to undetectable levels of Caspase 3/7 | showed an IL-2 signal at stimulation 2 |  |  |
| CC[C@H](C)[C@H](N)C(=O)N[C@@H](C)C(=O)N[C@@H](CC(C)C)C(=O)N[C@H](C(=O)N[C@@H](CC(C)C)C(=O)N[C@@H](CCC(=O)O)C(=O)N1CCC[C@H]1C(=O)N(C)CC(=O)N[C@H](CS)C(=O)N[C@@H](CS)C(=O)N[C@@H](CCC(N)=O)C(=O)N[C@@H](CCC(=O)O)C(=O)N[C@@H](CCCNC(=N)N)C(=O)N[C@@H](C)C(=O)N[C@@H](C)C(=O)O)[C@@H](C)CC [PA-0127, IALILEP(Sar)dCCQERAA] (HELM PEPTIDE1{I.A.L.I.L.E.P.[Sar].[dC].C.Q.E.R.A.A}$$$$V2.0) | inhibition of complement activity | did not reduce levels of free DNA; also recorded: did not show a reduction in free DNA |  |  | increased binding was observed at early time points with diminished signal at later time points |  |  | 20 |  |
| IALILEPI(Sar)CQERAA (IALILEPIXCQERAA; sarcosine at position 9; MOD_RES (9)..(9) Sarcosine) [PA-0089] |  |  |  |  |  |  |  |  | water soluble without PEGylation |
| IALILEP(Sar)CCQERAA (IALILEPXCCQERAA; sarcosine at position 8; MOD_RES (8)..(8) Sarcosine) [PA-0088, reference compound] |  | reduced the level of free DNA |  |  |  |  |  |  | water soluble without PEGylation |
